Measurements reported in patent US7109229B2, “Methods and compounds for treating proliferative diseases” (Eli Lilly and Company, priority 2000, dated 2006).
Counter-ions that a name gives are not always drawn. Marks after values point to notes of the source that are not given here.

Legend:
[1] = tested on: Ser-780 pRb phosphorylation in HCT116 cells; test: Inhibition of Rb phosphorylation assay; assay type: cell-based, human; conditions: HCT116 cells after 24 h incubation period
Excerpt: (§1) A major in vitro test is the cell growth inhibition test. In this test, the concentration of the test compound that causes a 50% inhibition of cell growth for a selected cell line. A low value is desirable in this test. This test is done according to a standard protocol (SCHULTZ, R. M., et al, Oncology Res. 5, 223–228 (1993)). Another major in vitro test is the G1 arrest test. This test measures the proportion of the cells that are arrested in the G1 phase relative to control. A result above 1.5 is desirable in this test. […] The results are expressed as a percentage inhibition of ser-780 pRb phosphorylation in drug treated cells versus control cells treated with DMSO alone. […]
Human HCT116 colon carcinoma cell line was purchased from American Tissue Culture Collection (Rockville, Md.) and maintained as monolayer in RPMI-1640 with L-Glutamine and 25 mM HEPES supplemented with 10% fetal bovine serum in a 37° C. incubator with a 10% CO2 atmosphere. […] Protein concentration was determined by the Bio-Rad DC protein assay (Bio-Rad, Hercules, Calif.). […]

Cyclin D1-cdk4 [2] = biological target: T1, Cyclin D1-cdk4 (Homo sapiens, UniProt P11802); test: Cyclin D1-cdk4 kinase activity with the ING peptide as substrate; assay type: biochemical
T1 sequence (P11802 whole entry): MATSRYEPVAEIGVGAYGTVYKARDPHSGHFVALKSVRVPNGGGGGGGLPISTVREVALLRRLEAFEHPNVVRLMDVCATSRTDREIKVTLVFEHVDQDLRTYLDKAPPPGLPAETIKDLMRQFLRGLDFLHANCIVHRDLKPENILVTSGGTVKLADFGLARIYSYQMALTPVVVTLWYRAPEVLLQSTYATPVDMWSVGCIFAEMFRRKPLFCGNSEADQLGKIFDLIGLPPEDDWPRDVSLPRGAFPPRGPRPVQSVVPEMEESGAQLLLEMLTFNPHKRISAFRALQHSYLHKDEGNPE
T1 sequence (P24385 whole entry partner): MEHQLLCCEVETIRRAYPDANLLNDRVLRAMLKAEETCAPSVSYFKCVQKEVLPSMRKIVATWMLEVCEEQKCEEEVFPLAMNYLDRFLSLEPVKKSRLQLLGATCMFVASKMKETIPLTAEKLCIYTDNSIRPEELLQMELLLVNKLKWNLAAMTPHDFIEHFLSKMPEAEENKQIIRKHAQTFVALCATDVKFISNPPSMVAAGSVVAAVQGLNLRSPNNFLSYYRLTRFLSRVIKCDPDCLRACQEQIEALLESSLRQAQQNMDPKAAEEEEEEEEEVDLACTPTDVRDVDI
Description: The compounds of Formula I were tested using in vitro. An important in vitro test is the ability of the compound to inhibit the activity of the CDK4 enzyme. This test is done using Rb^ING and/or Rb^21 substrates as described in the literature (KONSTANTINIDIS, A. K., et al, J. Biol. Chem. 273, 26506–26515 (1998)). The test yields the micromolar concentration of the test compound, which produces a 50% inhibition of the CDK4 enzyme activity.
Assay of Cyclin D1-cdk4 Kinase Activity with the ING Peptide as Substrate.
The cyclin D1-cdk4 kinase activity of a compound was assayed by preparing a 100 ul reaction at the following concentrations: 35 mM Hepes pH 7.0, 10 mM MgCl2, 300 uM ATP, 200 uM ING peptide, 1.0 uCi of γ-^33P-ATP, 4.34 ug of cyclin D-cdk4 enzyme, 4% DMSO, and various concentrations of inhibitor. The reaction was incubated at room temperature (about 74° F.) for 60 minutes, and then terminated by the addition of 100 ul of 10% phosphoric acid. Next, the reaction was filtered through a Millipore Multiscreen-PH Plate—Catalog number MAPH NOB 10, and the plate was washed 2 times with 320 ul each of 0.5% phosphoric acid, followed by the addition of 100 ul of scintillation fluid and quantitation on a Packard Instruments, Top Count, scintillation counter.

H460 cells = test: Cell growth inhibition assay (MTT), H460; assay type: cell-based; conditions: Homo sapiens, NCI-H460, 72 h drug exposure
Excerpt: as §1

Cyclin D1-cdk4 [3] = biological target: T1, Cyclin D1-cdk4; test: Cyclin D1-cdk4 kinase activity with the Rb21 protein as substrate; assay type: biochemical
Description: The compounds of Formula I were tested using in vitro. An important in vitro test is the ability of the compound to inhibit the activity of the CDK4 enzyme. This test is done using Rb^ING and/or Rb^21 substrates as described in the literature ([…]., et al, J. Biol. Chem. 273, 26506-26515 (1998)). […] The reaction was incubated at room temperature (about 74° F.) for 60 minutes, and then terminated by the addition of 100 ul of 25% trichloroacetic acid. Next, the reaction was filtered through a Millipore Multiscreen-FC Plate-Catalog number MAFC NOB 10, and the plate was washed 2 times with 320 ul each of 10% trichloroacetic acid, followed by the addition of 100 ul of scintillation fluid and quantitation on a Packard Instruments, Top Count, scintillation counter.

HCT116 cells [4] = test: Cell growth inhibition assay (MTT), HCT116; assay type: cell-based; conditions: Homo sapiens, HCT-116, 72 h drug exposure
Excerpt: as §1

HCT116 cells [5] = test: G1 arrest test, cell cycle analysis using flow cytometry; assay type: cell-based, human; conditions: HCT116 cells after 24 h incubation period; at IC50 conc.
Excerpt: as §1

protein kinase A = conditions: background, literature; cited from earlier work
protein kinase C = conditions: background, literature; cited from earlier work
[6] = Table 1, ING peptide substrate, read-out: RbING IC50
[7] = Table 1, Rb21 protein substrate, read-out: Rb21 IC50

Compound	IC50 (Cyclin D1-cdk4 [2]; [6])	IC50 (Cyclin D1-cdk4 [3]; [7])	also measured
COc1ccc2c(c1)[nH]c1c3ccc4ccn(C)c4c3c3c(c21)C(=O)NC3=O [Example 1, 11-Methoxy-5-methyl-5H,13H-indolo[6,7-a]pyrrolo[3,4-c]carbazole-6,8-dione]	0.0431 µM	0.00165 µM	% Inhibtion of Rb Phosphorylation in vitro @3XIC50 ([1]; compound at 3XIC50): 97%; % Inhibtion of Rb Phosphorylation in vitro @IC50 ([1]; compound at IC50): 90%; IC50 (Cyclin D1-cdk4 [2]; Table 2, Rb^ING substrate, read-out: CDK4 Inhibition (IC50/μM) Rb^ING): 0.04 µM; IC50 (H460 cells): 1.09 µM; IC50 (Cyclin D1-cdk4 [3]; Table 2, Rb^21 substrate, read-out: CDK4 Inhibition (IC50/μM) Rb^21): 0.001 µM; IC50 (HCT116 cells [4]): 1.8 µM; G1 Arrest; x vs control (HCT116 cells [5]): 2.6^c x vs control
Cn1ccc2ccc3c4[nH]c5ccccc5c4c4c(c3c21)C(=O)NC4=O [Example 2, 5-Methyl-7H,13H-indolo[6,7-a]-pyrrolo[3,4-c]-carbazole-6,8-dione]		0.0215 µM	
COc1ccc2c3c4c(c5c(ccc6ccn(C)c65)c3n(CCCO)c2c1)C(=O)NC4=O [Example 11, 13-(3-Hydroxy-propyl)-11-methoxy-5-methyl-5H,13H-indolo[6,7-a]pyrrolo[3,4-c]carbazole-6,8-dione]		0.0116 µM	
COc1ccc2c3c4c(c5c(ccc6ccn(C)c65)c3n(CCN3CCC(C(N)=O)CC3)c2c1)C(=O)NC4=O [Example 36, 11-Methoxy-5-methyl-13-(1-ethyl-piperidine-4-carboxylic acid amide)-7H-indolo[6,7-a]pyrrolo[3,4-c]carbazole-6,8-dione]	0.0824 µM	0.0357 µM	
COc1ccc2c3c4c(c5c(ccc6ccn(C)c65)c3n(CCCNCCN(C)C)c2c1)C(=O)NC4=O [Example 55, 11-Methoxy-5-methyl-13-(N,N-dimethyl-N′-propyl-ethane-1,2-diamine)-7H-indolo[6,7-a]pyrrolo[3,4-c]carbazole-6,8-dione]	0.042 µM	0.0246 µM	
COc1ccc2c3c4c(c5c(ccc6ccn(C)c65)c3n(CCCNCCN(C)C)c2c1)C(=O)NC4=O [Example 56, 11-Methoxy-5-methyl-13-(N,N-dimethyl-N′-propyl-ethane-1,2-diamine)-7H-indolo[6,7-a]pyrrolo[3,4-c]carbazole-6,8-dione dihydrochloride]	0.0992 µM	0.0177 µM	
COC(=O)[C@H](C)NCCCn1c2cc(OC)ccc2c2c3c(c4c(ccc5ccn(C)c54)c21)C(=O)NC3=O [Example 59, (S)-(+)-11-Methoxy-5-methyl-13-(2-propylamino-propionic acid methyl ester)-7H-indolo[6,7-a]pyrrolo[3,4-c]carbazole-6,8-dione]	0.12 µM	0.0451 µM	
CN1CCN(CCc2cccc3c2[nH]c2c4ccc5ccn(C)c5c4c4c(c32)C(=O)NC4=O)CC1 [Example 68, 5-Methyl-12-(1-ethyl-4-methyl-piperazine)-7H,13H-indolo[6,7-a]pyrrolo[3,4-c]carbazole-6,8-dione]	0.0226 µM	0.0109 µM	
CN1CCN(CCCc2cccc3c2[nH]c2c4ccc5ccn(C)c5c4c4c(c32)C(=O)NC4=O)CC1 [Example 79, 12-(1-Methyl-4-propyl-piperazine)-5-methyl-7H,13H-indolo[6,7-a]pyrrolo[3,4-c]carbazole-6,8-dione]	0.0763 µM	0.0347 µM	
Cn1ccc2ccc3c4[nH]c5c(CCN6CCCCC6)cccc5c4c4c(c3c21)C(=O)NC4=O [Example 83, 5-Methyl-12-(2-ethylpiperidine)-7H,13H-indolo[6,7-a]pyrrolo[3,4-c]carbazole-6,8-dione]	0.0782 µM	0.0109 µM	
Cc1ccc2c(c1)[nH]c1c3ccc4ccn(C)c4c3c3c(c21)C(=O)NC3=O [Example 92, 11-Methyl-5-methyl-7H,13H-indolo[6,7-a]pyrrolo[3,4-c]6,8-dione]			melting point: 170 °C (dec.)
Cn1ccc2ccc3c4[nH]c5ccc(C(F)(F)F)cc5c4c4c(c3c21)C(=O)NC4=O [Example 94, 10-Trifluoromethyl-5-methyl-7H,13H-indolo[6,7-a]pyrrolo[3,4-c]6,8-dione]			melting point: 100 to 110 °C (dec.)
CN1CC[C@H](c2c(O)cc(O)c3c(=O)cc(-c4ccccc4Cl)oc23)[C@H](O)C1 [Flavopiridol]			concentration at which protein kinase A is inhibited (protein kinase A): ≥ 10 μM/L; concentration at which protein kinase C is inhibited (protein kinase C): ≥ 10 μM/L
